Laboratory results taken from patent US20230035723A1, “Treatment of Pancreatic Cancer” (SynCore Biotechnology Co., Ltd., priority 2017, published 2023).
Counter-ions that a name gives are not always drawn. Like-named read-outs stand apart in the source and are kept apart here.

How the values were obtained:
PAXF PANC-1 = test: Cell lines exhibiting drug resistance (IC50); type: cell-based
PAXF 546 = test: Cell lines exhibiting drug resistance (IC50); type: cell-based
PAXF 1986 = test: Cell lines exhibiting drug resistance (IC50); type: cell-based
PAXF 1998 = test: Cell lines exhibiting drug resistance (IC50); type: cell-based
PAXF 2005 = test: Cell lines exhibiting drug resistance (IC50); type: cell-based
PAXF 2035 = test: Cell lines exhibiting drug resistance (IC50); type: cell-based
PAXF 2059 = test: Cell lines exhibiting drug resistance (IC50); type: cell-based
PAXF CAPAN-2 = test: Cell lines exhibiting drug resistance (IC50); type: cell-based
PAXF HPAC = test: Cell lines exhibiting drug resistance (IC50); type: cell-based
[1] = test system: metastatic pancreatic cancer; settings: first-line therapy of metastatic pancreatic cancer; cited from earlier work
pancreatic cancer [2] = settings: pancreatic cancer patients; P=0.002; cited from earlier work
pancreatic cancer [3] = settings: phase III study, pancreatic cancer patients; cited from earlier work
[4] = test system: unresectable pancreatic cancer; settings: phase III study; cited from earlier work
[5] = test system: metastatic pancreatic cancer; settings: first-line therapy; cited from earlier work

## CC[C@]1(O)C[C@H]2CN(CCc3c([nH]c4ccccc34)[C@@](C(=O)OC)(c3cc4c(cc3OC)N(C=O)[C@H]3[C@@](O)(C(=O)OC)[C@H](OC(C)=O)[C@]5(CC)C=CCN6CC[C@]43[C@@H]65)C2)C1 [Vincristine sulfate]
PAXF PANC-1; Homo sapiens
  IC50: 3 nM
PAXF 546; Homo sapiens, PAXF546
  IC50: 247 nM
PAXF 1986
  IC50: 300 nM
PAXF 1998
  IC50: 8 nM
PAXF 2005
  IC50: 45 nM
PAXF 2035
  IC50: 462 nM

## CC[C@@]1(O)C(=O)OCc2c1cc1n(c2=O)Cc2cc3c(CN(C)C)c(O)ccc3nc2-1 [Topotecan HCl]
PAXF PANC-1; Homo sapiens
  IC50: 42 nM
PAXF 546; Homo sapiens, PAXF546
  IC50: 80 nM

## CCCS(=O)(=O)Nc1ccc(F)c(C(=O)c2c[nH]c3ncc(-c4ccc(Cl)cc4)cc23)c1F [Vemurafenib]
PAXF PANC-1; Homo sapiens
  IC50: 16100 nM
PAXF 546; Homo sapiens, PAXF546
  IC50: 5330 nM
PAXF 1986
  IC50: 9340 nM
PAXF 1998
  IC50: 10800 nM
PAXF 2005
  IC50: 6750 nM
PAXF 2035
  IC50: 11400 nM
PAXF 2059
  IC50: 11400 nM

## CC(C)C[C@H](NC(=O)[C@H](Cc1ccccc1)NC(=O)c1cnccn1)B(O)O [Bortezomib]
PAXF PANC-1; Homo sapiens
  IC50: 18 nM
PAXF 546; Homo sapiens, PAXF546
  IC50: 5 nM

## N.N.O=C([O-])C1(C(=O)[O-])CCC1.[Pt+2] [Carboplatin]
PAXF PANC-1
  IC50: 15600 nM
PAXF 546
  IC50: 17100 nM

## CC(=O)[C@]1(O)Cc2c(O)c3c(c(O)c2[C@@H](O[C@H]2C[C@H](N)[C@H](O)[C@H](C)O2)C1)C(=O)c1ccccc1C3=O [Idarubicin]
PAXF PANC-1; Homo sapiens
  IC50: 12 nM
PAXF 546; Homo sapiens, PAXF546
  IC50: 131 nM

## CS(=O)(=O)OC[C@H](O)[C@@H](O)COS(C)(=O)=O [Treosulfan]
PAXF PANC-1; Homo sapiens
  IC50: 2020 nM
PAXF 546; Homo sapiens, PAXF546
  IC50: 48100 nM

## CN(Cc1cnc2nc(N)nc(N)c2n1)c1ccc(C(=O)N[C@@H](CCC(=O)O)C(=O)O)cc1 [Methotrexate Hydrat]
PAXF PANC-1
  IC50: 38 nM
PAXF 546
  IC50: 129 nM
PAXF 1998
  IC50: 160 nM
PAXF 2005; PAXF 2005
  IC50: 10000 nM
PAXF 2059
  IC50: 31 nM

## COc1cccc2c1C(=O)c1c(O)c3c(c(O)c1C2=O)C[C@@](O)(C(=O)CO)C[C@@H]3O[C@H]1C[C@H](N)[C@H](O)[C@H](C)O1 [Doxorubicin HCl]
PAXF PANC-1; Homo sapiens
  IC50: 49 nM
PAXF 546; Homo sapiens, PAXF546
  IC50: 134 nM
PAXF 1986
  IC50: 59 nM
PAXF 1998
  IC50: 1230 nM
PAXF 2005
  IC50: 251 nM
PAXF 2035
  IC50: 795 nM
PAXF 2059
  IC50: 131 nM

## C#Cc1cccc(Nc2ncnc3cc(OCCOC)c(OCCOC)cc23)c1 [Erlotinib HCl]
PAXF PANC-1; Homo sapiens
  IC50: 113000 nM
PAXF 546; Homo sapiens, PAXF546
  IC50: 46100 nM
PAXF 1986
  IC50: 100000 nM
PAXF 1998
  IC50: 99100 nM
PAXF 2005
  IC50: 52700 nM
PAXF 2035
  IC50: 83600 nM

## CN(Cc1cnc2nc(N)nc(N)c2n1)c1ccc(C(=O)N[C@@H](CCC(=O)O)C(=O)O)cc1 [Methotrexate]
PAXF PANC-1; Homo sapiens
  IC50: 10000 nM
PAXF 546; Homo sapiens, PAXF546
  IC50: 66 nM

## CC(=O)O[C@H]1C(=O)[C@@]2(C)[C@H]([C@H](OC(=O)c3ccccc3)[C@]3(O)C[C@H](OC(=O)[C@H](O)[C@@H](NC(=O)c4ccccc4)c4ccccc4)C(C)=C1C3(C)C)[C@]1(OC(C)=O)CO[C@@H]1C[C@@H]2O [Paclitaxel]
PAXF CAPAN-2; Homo sapiens
  IC50: 444 nM
PAXF HPAC; Homo sapiens
  IC50: 383 nM
PAXF PANC-1; Homo sapiens
  IC50: 46 nM
PAXF 546; Homo sapiens, PAXF546
  IC50: 441 nM
PAXF 1986
  IC50: 204 nM
PAXF 1998
  IC50: 117 nM
PAXF 2005
  IC50: 312 nM
PAXF 2035
  IC50: 144 nM
PAXF 2059
  IC50: 261 nM

## FOLFIRINOX
[1]
  median overall survival: 11.1 months

## Vinorelbine bistartrate
PAXF PANC-1
  IC50: 2 nM
PAXF 546
  IC50: 72 nM

## COc1cc([C@@H]2c3cc4c(cc3[C@@H](O[C@@H]3O[C@@H]5CO[C@@H](C)O[C@H]5[C@H](O)[C@H]3O)[C@H]3COC(=O)[C@H]23)OCO4)cc(OC)c1O [Etoposide]
PAXF PANC-1; Homo sapiens
  IC50: 1500 nM
PAXF 546; Homo sapiens, PAXF546
  IC50: 7400 nM

## CCN(CC)CCNC(=O)c1c(C)[nH]c(/C=C2\C(=O)Nc3ccc(F)cc32)c1C [Sunitinib malate]
PAXF PANC-1; Homo sapiens
  IC50: 8550 nM
PAXF 546; Homo sapiens, PAXF546
  IC50: 7380 nM
PAXF 1986
  IC50: 4240 nM
PAXF 1998
  IC50: 13200 nM
PAXF 2005
  IC50: 7090 nM
PAXF 2035
  IC50: 2400 nM
PAXF 2059
  IC50: 16500 nM

## Bleomycin sulfate
PAXF PANC-1
  IC50: 149 nM
PAXF 546
  IC50: 10700 nM

## Nc1ccn([C@@H]2O[C@H](CO)[C@@H](O)C2(F)F)c(=O)n1 [Gemcitabine HCl]
PAXF CAPAN-2; Homo sapiens
  IC50: 3670 nM
PAXF HPAC; Homo sapiens
  IC50: 421 nM
PAXF PANC-1; Homo sapiens
  IC50: 5220 nM
PAXF 546; Homo sapiens, PAXF546
  IC50: 97 nM
PAXF 1986
  IC50: 8 nM
PAXF 1998
  IC50: 158 nM
PAXF 2005
  IC50: 390 nM
PAXF 2035
  IC50: 1490 nM
PAXF 2059
  IC50: 15 nM

## O=C1c2c(O)ccc(O)c2C(=O)c2c(NCCNCCO)ccc(NCCNCCO)c21 [Mitoxantron 2HCl]
PAXF PANC-1
  IC50: 10 nM
PAXF 546
  IC50: 187 nM
PAXF 1986
  IC50: 35 nM
PAXF 1998
  IC50: 240 nM
PAXF 2005; PAXF 2005
  IC50: 16 nM
PAXF 2035
  IC50: 67 nM
PAXF 2059
  IC50: 35 nM

## Nc1nc2[nH]cc(CCc3ccc(C(=O)N[C@@H](CCC(=O)O)C(=O)O)cc3)c2c(=O)[nH]1 [Pemetrexed, dinatrium]
PAXF PANC-1
  IC50: 13000 nM
PAXF 546
  IC50: 114 nM

## CO[C@@]12[C@H](COC(N)=O)C3=C(C(=O)C(C)=C(N)C3=O)N1C[C@@H]1N[C@@H]12 [Mitomycin C]
PAXF PANC-1
  IC50: 1120 nM
PAXF 546
  IC50: 465 nM
PAXF 1986
  IC50: 188 nM
PAXF 1998
  IC50: 987 nM
PAXF 2005; PAXF 2005
  IC50: 276 nM
PAXF 2035
  IC50: 678 nM

## CC(=O)O[C@@]12CO[C@@H]1C[C@H](O)[C@@]1(C)C(=O)[C@H](O)C3=C(C)[C@@H](OC(=O)[C@H](O)[C@@H](NC(=O)OC(C)(C)C)c4ccccc4)C[C@@](O)([C@@H](OC(=O)c4ccccc4)[C@H]21)C3(C)C [Docetaxel]
PAXF 546; Homo sapiens, PAXF546
  IC50: 104 nM
PAXF 1986
  IC50: 6 nM
PAXF 1998
  IC50: 15 nM
PAXF 2005
  IC50: 100 nM
PAXF 2035
  IC50: 4 nM
PAXF 2059
  IC50: 100 nM

## Nc1ccn([C@@H]2O[C@H](CO)[C@@H](O)[C@@H]2O)c(=O)n1 [Cytarabine]
PAXF PANC-1; Homo sapiens
  IC50: 158 nM
PAXF 546; Homo sapiens, PAXF546
  IC50: 4640 nM

## CC[C@]1(O)C[C@@H]2CN(CCc3c([nH]c4ccccc34)[C@@](C(=O)OC)(c3cc4c(cc3OC)N(C)[C@H]3[C@@](O)(C(N)=O)[C@H](O)[C@]5(CC)C=CCN6CC[C@]43[C@@H]65)C2)C1 [Vindesin sulfate]
PAXF PANC-1
  IC50: 5 nM
PAXF 546
  IC50: 109 nM

## N.N.[Cl][Pt][Cl] [Cisplatin]
PAXF CAPAN-2
  IC50: 62100 nM
PAXF HPAC
  IC50: 31700 nM
PAXF PANC-1
  IC50: 7440 nM
PAXF 546
  IC50: 11500 nM
PAXF 1986
  IC50: 4830 nM
PAXF 1998
  IC50: 75700 nM
PAXF 2005; PAXF 2005
  IC50: 10800 nM
PAXF 2035
  IC50: 46000 nM
PAXF 2059
  IC50: 41000 nM

## CC[C@]1(O)C[C@@H]2CN(CCc3c([nH]c4ccccc34)[C@@](C(=O)OC)(c3cc4c(cc3OC)N(C)[C@H]3[C@@](O)(C(=O)OC)[C@H](OC(C)=O)[C@]5(CC)C=CCN6CC[C@]43[C@@H]65)C2)C1 [Vinblastine sulfate]
PAXF PANC-1; Homo sapiens
  IC50: 1 nM
PAXF 546; Homo sapiens, PAXF546
  IC50: 71 nM

## O=NN(CCCl)C(=O)NCCO [Elmustin]
PAXF PANC-1
  IC50: 375000 nM
PAXF 546
  IC50: 722000 nM

## O=NN(CCCl)C(=O)NC1CCCCC1 [Lomustine]
PAXF PANC-1; Homo sapiens
  IC50: 43600 nM
PAXF 546; Homo sapiens, PAXF546
  IC50: 142000 nM

## O=c1[nH]cc(F)c(=O)[nH]1 [5-Fluorouracil]
PAXF PANC-1; Homo sapiens
  IC50: 3230 nM
PAXF 546; Homo sapiens, PAXF546
  IC50: 1250 nM
PAXF 1986
  IC50: 2250 nM
PAXF 1998
  IC50: 7480 nM
PAXF 2005
  IC50: 10300 nM
PAXF 2035
  IC50: 105000 nM
Pancreatic cancer [2]
  median overall survival: 4.4 months

## Nc1ccn([C@@H]2O[C@H](CO)[C@@H](O)C2(F)F)c(=O)n1 [gemcitabine]
Pancreatic cancer [2]
  median overall survival: 5.6 months
Pancreatic cancer [3]
  one-year survival: 17%
[4]
  median overall survival: 8.8 months
[1]
  median overall survival: 6.8 months
[5]
  median overall survival: 6.7 months

## O=C1[O][Pt]2([NH][C@@H]3CCCC[C@H]3[NH]2)[O]C1=O [Oxaliplatin]
PAXF PANC-1
  IC50: 994 nM
PAXF 546
  IC50: 1240 nM
PAXF 1986
  IC50: 1610 nM
PAXF 1998
  IC50: 34600 nM
PAXF 2005; PAXF 2005
  IC50: 12500 nM
PAXF 2035
  IC50: 99200 nM
